Tests used:
Type in all cases: cell-based, human
UCP1 mRNA [1] = assay: Quantitative PCR of UCP1 mRNA after forskolin stimulation of adipogenically induced MSCs; settings: adipogenically induced MSCs stimulated with forskolin
Procedure: b) Adipogenic Induction of Mesenchymal Stem Cells (MSC). MSCs were seeded at an initial density of about 10.5×10^4 cells/cm^2 in well plates and grown to confluence. Adipogenic differentiation was induced via three cycles of 4 days of induction, followed by 3 days of maintenance. The basal media used in the differentiation process composed of high glucose Dulbecco's modified Eagle's medium (HG DMEM, Gibco) supplemented with Glutamax, 10% fetal bovine serum, 100 units/ml penicillin and […] streptomycin The standard white adipogenic induction media is supplemented with 3-isobutyl-1methylxanthine (0.5 mM), indomethacin (0.2 mM), dexamethasone (1 μM) and insulin (10 μg/ml). For brown adipocyte differentiation, cells were pre-treated with BMP7 (R&D Systems 354-BP, 125 ng/ml) 3 days prior to induction. […]
(§1) e) Quantitative PCR to assess expression of pan-adipocyte and brown adipocyte genes. […] Real time quantitative polymerase chain reactions (RT-PCR) were performed and monitored on a real-time PCR instrument (Stratagene) using Maxima™ SYBR Green/ROX qPCR Master Mix (K0222, Fermentas). […] Relative gene expression levels were determined using the ΔΔ-Ct method with the geometric mean of human TATA-box binding protein (TBP) and ribosomal phosphoprotein P0 (RPLP0) levels as an endogenous control.

[2] = tested on: adipogenically induced mesenchymal stem cells; assay: Nile Red adherent cytometry of cytoplasmic lipid accumulation / lipolysis; settings: for lipolysis after isoproterenol (emptying of lipid droplets): 16 hrs of 5 μM isoproterenol, white and brown adipogenically induced MSCs
Procedure: b) Adipogenic Induction of Mesenchymal Stem Cells (MSC). MSCs were seeded at an initial density of about 10.5×10^4 cells/cm^2 in well plates and grown to confluence. Adipogenic differentiation was induced via three cycles of 4 days of induction, followed by 3 days of maintenance. The basal media used in the differentiation process composed of high glucose Dulbecco's modified Eagle's medium (HG DMEM, Gibco) supplemented with Glutamax, 10% fetal bovine serum, 100 units/ml penicillin and […] streptomycin The standard white adipogenic induction media is supplemented with 3-isobutyl-1methylxanthine (0.5 mM), indomethacin (0.2 mM), dexamethasone (1 μM) and insulin (10 μg/ml). For brown adipocyte differentiation, cells were pre-treated with BMP7 (R&D Systems 354-BP, 125 ng/ml) 3 days prior to induction. The brown adipogenic induction media is supplemented with 3-isobutyl-lmethylxanthine (0.5 mM), indomethacin (0.2 mM), dexamethasone (1 μM), insulin (10 μg/ml), triiodothyronine (1 nM) and Rosiglitazone (1 μM). Basal media alone was used during the maintenance phase. For conditions treated with macromolecular crowding (+MMC), a cocktail of macromolecules (+MMC), consisting of Ficoll 70 (37.5 mg/ml) and Ficoll 400 (25 mg/ml) was added to the basal media (High glucose DMEM, Gibco) throughout the differentiation process (during both induction and maintenance phases).
c) Stimulation with forskolin or isoproterenol. After the 3-week adipogenic differentiation, cells were incubated with 10 μM forskolin (Sigma) or 5 μM isoproterenol (Sigma) for 4 h or 16 h before analysis, to mimic nor-adrenergic stimulation in culture.
d) Nile Red Adherent Cytometry to assess area of cytoplasmic lipid accumulation. After 21 days (corresponding to three complete induction cycles), cell cultures were rinsed with PBS, fixed in 4% formaldehyde (10 min; RT) then co-stained for 30 min with Nile Red (Sigma-Aldrich; 5 μg/ml), for cytoplasmic lipid droplets and 4′,6-diamidino-2-phenylindole (DAPI; 0.5 μg/ml) for nuclear DNA as described previously. Adherent fluorescent cytometry was based on 9 sites per well imaged with a coolSNAP HQ camera attached to a Nikon TE2000 microscope at 2× magnification, covering 83% of total well area. Nile Red was viewed under a rhodamine filter [Ex572 nm/Em630 nm] while DAPI fluorescence was assessed with a DAPI filter [Ex350 nm/Em465 nm]. Measured Nile Red events were thresholded and measured by an image analysis software (MetaMorph 6.3v3). Extent of adipogenic differentiation was quantified by area of Nile Red fluorescence from thresholded events normalized to nuclei count based on detected DAPI fluorescence. End data corresponded to total area of lipid droplets present per well relative to cell number.

UCP1 mRNA [3] = assay: Quantitative PCR of UCP1 mRNA expression in adipogenically induced MSCs; settings: 3-week adipogenic induction of MSCs
Procedure: a) Mesenchymal Stem Cell Culture. Human bone-marrow derived mesenchymal stem cells (MSCs) were obtained commercially (Cambrex) at passage 2 (p2) and cultured in a basic culture medium composed of low glucose Dulbecco's modified Eagle's medium (LG DMEM, Gibco) supplemented with Glutamax, 10% fetal bovine serum, 100 units/ml penicillin and […] streptomycin. Cells were maintained at 37° C. in a humidified atmosphere of 5% CO2, with medium change twice per week. To prevent spontaneous differentiation, cells were maintained at subconfluent levels prior to being detached using TrypLE™ Express (Gibco), passaged at 1:3 and cultured to generate subsequent passages. Directed differentiation was carried out with cells between passage 6 (p6) and 8 (p8).
b) Adipogenic Induction of Mesenchymal Stem Cells (MSC). […]
as §1

C=C[C@@]1(C)CC(=O)[C@]2(O)[C@@]3(C)[C@@H](O)CCC(C)(C)[C@@H]3[C@H](O)[C@H](OC(C)=O)[C@@]2(C)O1 [forskolin]
additional UCP1 mRNA upregulation on forskolin stimulation (UCP1 mRNA [1]): 10 fold
reduction of Nile Red positive area (factor) ([2]; brown induction protocol, 16 hrs after forskolin stimulus): 2.14
reduction of hypothetical triglyceride volume (factor) ([2]; modeled as sphere, brown induced MSCs under crowding, after forskolin treatment): 3

CC(C)NCC(O)c1ccc(O)c(O)c1 (stereo not drawn) [isoproterenol]
lipolysis after isoproterenol (emptying of lipid droplets) [2]: leads to emptying of lipid droplets
lipolysis after isoproterenol (emptying of lipid droplets) ([2]; listed as Isoproterenol): stronger lipolytic effect on adipocytes that had been differentiated under a BAT induction protocol

B1: BMP7: bone morphogenetic protein, R&D Systems 354-BP, 125 ng/ml pre-treatment 3 days prior to induction (protein, UniProt P18075 293-431, looked up)
Bone morphogenetic protein 7: STGSKQRSQNRSKTPKNQEALRMANVAENSSSDQRQACKKHELYVSFRDLGWQDWIIAPEGYAAYYCEGECAFPLNSYMNATNHAIVQTLVHFINPETVPKPCCAPTQLNAISVLYFDDSSNVILKKYRNMVVRACGCH
effect on UCP1 mRNA expression (in words) (UCP1 mRNA [3]): only modestly increases

From US20170266237A1, “Generation of Brown Adipose Tissue (BAT) from Mesenchymal Cells” (National University of Singapore, priority 2012, published 2017)
